{
  "source": "patent US4885305A",
  "about": "“Nasal compositions” (Yamanouchi Pharmaceutical Co., Ltd., priority 1984, dated 1989)",
  "experiment": "Bioavailability trial of nicardipine in rhesus monkeys: nasal composition compared with oral route (gastric tube), plasma levels by gas chromatography",
  "assay_type": "in vivo",
  "conditions": "rhesus monkey; for AUC(0-t) at 24 h: read-out: AUC 0-24 h (area under the curve); for Tmax: read-out: T max (time to obtain C max)",
  "procedure": "This activity has been confirmed by standard bioavailability trials wherein nasal pharmaceutical compositions of the invention are compared with other conventional compositions and blood levels of drug are measured. In one trial, a nasal composition of the invention comprising 4 mg nicardipine hydrochloride per ml of distilled water has been administered nasally to rhesus monkeys (weight from 7 to 12 kg). A dose of 0.5 ml of this composition is sprayed each morning into each nostril. Blood samples are taken up 15 minutes, 30 minutes, 1 hour, 2 hours, 3 hours, 4 hours, 6 hours, 8 hours and 24 hours after administration and treated with lithium heparin. The treated blood samples are centrifuged and the concentration of nicardipine in the plasma is determined in conventional manner by converting the nicardipine into a corresponding pyridine derivative and determination by gas chromatographic techniques. The same animals are also treated in another similar trial with orally administered nicardipine at a dose of 20 mg by mean of a gastric tube.",
  "key": {"[1]": {"conditions": "oral route (gastric tube), 20 mg"}},
  "note": "Where two headings read alike, the source gives them in different places.",
  "data": [
    {"smiles": "COC(=O)C1=C(C)NC(C)=C(C(=O)OCCN(C)Cc2ccccc2)C1c1cccc([N+](=O)[O-])c1", "note": "(stereo not shown) [nicardipine]", "values": [
      {"measurement": "AUC(0-t) at 24 h", "setting": "nasal route, 4 mg", "value": "192 ± 36.3", "unit": "ng·h/mL"},
      {"measurement": "Tmax", "setting": "nasal route, 4 mg", "value": "0.4 ± 0.1", "unit": "h"},
      {"measurement": "AUC(0-t) at 24 h", "setting": "[1]", "value": "457 ± 86.6", "unit": "ng·h/mL"},
      {"measurement": "Tmax", "setting": "[1]", "value": "2.1 ± 0.5", "unit": "h"}
    ]}
  ]
}
